# Experimental data from patent US7643943B2, “Methods for monitoring drug activities in vivo” (Wyeth LLC, priority 2003, dated 2010).
# [1] = CCI-779 final population model, whole blood, RCC patients
# [2] = CCI-779 model, 1,000 bootstrap sample runs
# 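Further: population pharmacokinetic analysis in NONMEM of pooled full and sparse blood sampling from patients, exponential error on kinetic parameters, proportional residual error, bootstrap check over 1,000 resamples.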
# Protocol: In a randomized, double-blind, multicenter trial, once-weekly intravenous doses of 25-, 75-, or 250-mg of CCI-779 were administered to patients with advanced renal cancer that were either previously treated, or untreated and not appropriate candidates for high dose interlukin-2 therapy. Whole blood for CCI-779 and metabolite concentrations was drawn for population pharmacokinetic analysis, and Bayesian-predicted area under the concentration-time curves for parent drug (AUC), parent plus metabolite (AUCsum), and cumulative AUC and AUCsum were derived.
# For CCI-779 clearance, factors for dose, attenuation of exposure with multiple-dose, and effect of body surface area were included.
# The following examples were based on a randomized, double-blind, multicenter, outpatient phase 2 study of CCI-779 administered by 30 minute intravenous infusion (via an automatic dispensing pump) in patients with advanced RCC. Eligible patients were randomly assigned to treatment in a 1:1:1 ratio to receive 25 mg, 75 mg, or 250 mg of CCI-779 weekly until evidence of disease progression.
# Full pharmacokinetic profiling was planned in a subset of patients, with remaining patients to provide sparse sampling.
# The bioanalytical method for CCI-779 was performed using whole blood in a liquid chromatography/tandem mass spectrometry (LC/MS/MS) procedure with deuterated internal standard.
# In order to characterize the pharmacokinetic profiles of patients providing sparse blood sampling, fully and sparsely sampled patient data were analyzed collectively using a population pharmacokinetic method and the NONMEM application (version 1.0, Revision 5.0 on Windows NT 4.0 computer with Pentium processor, NONMEM Project Group, University of California at San Francisco, Calif.). […] Data were therefore modeled separately and segregated by analyte into two separate data sets with dose, time/duration of administration, and demographic information. […] Construction of the NONMEM infile was performed using SAS (version 8.1) on a Sun Microsystems mainframe computer with Sun OS 5.8. […] In both cases, the model-derived value for AUC for a given patient and analyte were obtained from the quotient of CCI-779 Dose/Clearance (CL), in which CL was obtained from Bayesian estimation and the POSTHOC option of NONMEM.
# During model building, an exponential error model was applied to the kinetic model.
compound,measurement,setting,value
CO[C@H]1C[C@@H]2CC[C@@H](C)[C@@](O)(O2)C(=O)C(=O)N2CCCC[C@H]2C(=O)O[C@H]([C@H](C)C[C@@H]2CC[C@@H](OC(=O)C(C)(CO)CO)[C@H](OC)C2)CC(=O)[C@H](C)/C=C(\C)[C@@H](O)[C@@H](OC)C(=O)[C@H](C)C[C@H](C)/C=C/C=C/C=C/1C [CCI-779],Inter-Patient Variability % on CL,CCI-779 final population model,23.7%
same,Inter-Patient Variability % on V2,CCI-779 final population model,44.1%
same,Inter-Patient Variability % on V3,CCI-779 final population model,129%
same,"Intersubject variability on CL (ω^21), final model parameter estimate",CCI-779 final population model,0.056
same,"Intersubject variability on V2 (ω^22), final model parameter estimate",CCI-779 final population model,0.194
same,"Intersubject variability on V3 (ω^23), final model parameter estimate",CCI-779 final population model,1.67
same,"Proportional error (ε^2), final model parameter estimate",CCI-779 final population model,0.157
same,"V1 (θ2), parameter estimate",[1],37.6 L
same,"V2 (θ4), parameter estimate",[1],271 L
same,"V3 (θ6), parameter estimate",[1],323 L
same,"Q2 (θ3), parameter estimate","CCI-779 final population model, TVQ2=6.48*DOSE^0.551",6.48 L/h
same,"Q3 (θ5), parameter estimate","CCI-779 final population model, TVQ3=0.258*DOSE^0.551",0.258 L/h
same,"INTR, inter-period variability on CL (θ8), parameter estimate","CCI-779 final population model, factor for multiple doses (DNUM=1)",0.103
same,"Inter-period variability on CL (θ8), bootstrap sample median",[2],0.110
same,"Intersubject variability on CL (ω^21), bootstrap sample median",[2],0.215
same,"Intersubject variability on V2 (ω^22), bootstrap sample median",[2],0.414
same,"Intersubject variability on V3 (ω^23), bootstrap sample median",[2],1.08
same,"Proportional error (ε^2), bootstrap sample median",[2],0.383
same,"Q2 (θ3), bootstrap sample median",[2],6.46 L/h
same,"Q3 (θ5), bootstrap sample median",[2],0.267 L/h
same,"V1 (θ2), bootstrap sample median",[2],38.3 L
same,"V2 (θ4), bootstrap sample median",[2],275 L
same,"V3 (θ6), bootstrap sample median",[2],339 L
same,increase of clearance with BSA,"for a given dose, patients with BSA values that range from 1.5 to 2 m^2",approximately 45%
